Eight compounds from patent US4808729A, “Leukotriene LTD4 and LTB4 antagonists” (G. D. Searle & Co., priority 1987, dated 1989) can be followed below.

Experiment [1] has as its target T1, guinea pig lung receptors (LTD4 receptor) (Cavia porcellus, UniProt Q2NNR5).
T1 construct: guinea pig lung receptors, isolated from guinea pig lung membrane; from tissue; host or cells: guinea pig lung membrane
T1 sequence (Q2NNR5 1-340): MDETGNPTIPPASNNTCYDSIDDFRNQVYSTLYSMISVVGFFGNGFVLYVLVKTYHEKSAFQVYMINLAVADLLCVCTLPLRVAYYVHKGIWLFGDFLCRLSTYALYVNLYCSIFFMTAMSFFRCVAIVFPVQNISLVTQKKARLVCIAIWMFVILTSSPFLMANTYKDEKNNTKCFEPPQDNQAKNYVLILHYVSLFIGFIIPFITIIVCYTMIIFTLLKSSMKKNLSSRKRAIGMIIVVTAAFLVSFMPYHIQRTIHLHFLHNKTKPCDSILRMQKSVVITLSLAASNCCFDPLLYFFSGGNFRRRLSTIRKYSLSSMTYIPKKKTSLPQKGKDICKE
Description: Leukotriene (LTD4) Receptor Binding Assay. The settings on record: LTD4 Antagonism; guinea pig lung membrane. As to the method: Leukotriene Receptor Binding Assay (12c01)
The in vitro LTD4 receptor binding assay is carried out as follows:
Specific binding of titrated LTD4 to a fixed number of guinea pig lung receptors, isolated from guinea pig lung membrane, is measured in the presence and absence of test compound. The initial screening dose (1×10^-5 M is considered active if the specific binding of LTD4 is reduced by 45% or more. Active compounds are tested in a dose-response manner to determine IC50 values.

Experiment [2] relates to LTD4 action on respiratory smooth muscle. Description: In Vivo Bronchoconstriction Assay (LTD4-induced). The arrangement: species or system guinea pig. To be noted: LTD4 Antagonism, guinea pigs, 2000 units LTD4 IV. As for the experimental part:
The compounds are tested in vivo as follows. Adult male fasted Hartly guinea pigs weighing 300-350 g are pretreated with pyrilamine and indomethacin to block the bronchoconstricture effects of endogenous histamine and the synthesis of thromboxane A2 respectively. Compounds of the invention are administered IV or IG at approximate times prior to the IV administration of 2000 units of LTD4. Intratracheal pressure is monitored prior to and subsequent to LTD4 in animals anesthetized with pentobarbital and attached to a rodent respirator. Compounds which antagonize the direct component of LTD4 action on respiratory smooth muscle inhibit intratracheal insufflation pressure increases (P< or =0.05) caused by LTD4. FPL 55712 is used as a control.

In experiment [3] the target is T2, guinea pig ileum (LTD4-induced contraction) (Cavia porcellus, UniProt Q2NNR5).
T2 construct: Fresh segments of guinea pig ileum; from tissue; host or cells: guinea pig ileum segments
T2 sequence (Q2NNR5 1-340): T1 sequence (Q2NNR5 1-340)
Description: LTD4 Antagonism in Guinea Pig Ileum. To be noted: pA2, Schild analysis. The experiment is classed as cell-based. As to the method:
LTD4 Antagonism in Guinea Pig Ileum
Fresh segments of guinea pig ileum were suspended in 2 ml. tissue baths containing oxygenated modified Tyrodes solution. After an equilibration period, an agonist dose-response curve was generated by exposing each tissue to 4 different LTD4 doses and measuring the ensuing contractile heights. The ileum segments were washed and rested between exposures to agonist. Following this, the tissues were incubated with a single concentration of test compound and the agonist dose-response procedure was repeated. The dose ratio is a measure of the antagonist's ability to shift the agonist dose-response curve to the right. It is derived as the concentration of agonist necessary to reach a given response level in the presence (A') versus the absence (A) of antagonist. For example, if the test concentration of compound had no effect on the agonist-induced response (A'=A) the dose-ratio would approximate 1. […] One dose-ratio value is determined for each strip of ileum used to test antagonist. […] Schild analysis examines the linearity of the function described by the dose-ratios written as log [(A'/A)-1] versus antagonist concentration. If the linearity is […] and the slope approximates 1, inhibition is considered to be competitive. The pA2 is the negative log of the antagonist concentration required to produce a dose-ratio of 2. This value is considered to be a measure of the affinity of the competitive antagonist.

In another experiment the target is T3, LTB4 receptor (Homo sapiens, UniProt Q15722).
T3 construct: Neutrophils were purified from venous blood of normal human donors; endogenous in cells; host or cells: human blood neutrophils
Nature of the experiment: LTB4 Receptor Binding Assay (human neutrophils). To be noted: LTB4 Antagonism, 0.6 nano M (3H) LTB4, 0° C., 45 minutes. As to the method:
Preparation of Human Neutrophils
Neutrophils were purified from venous blood of normal human donors using standard techniques of dextran sedimentation, centrifugation on Histopaque sterile solution (Sigma) and hypotonic lysis of erythrocytes (Boyum, A., Isolation of Leukocytes from Human Blood: Further Observations. Scand. J. Lab. Clin. Invest. 21 (Suppl. 97): 31, 1968). The purity of isolated neutrophils was ≥95%.
LTB4 Receptor Binding Assay
Neutrophils (4-6×10^6) in 1 ml Hanks' balanced salt solution containing 10 mM HEPES buffer (HBSS), pH 7.4 and […] nordihydroguaiaretic acid were incubated with 0.6 nano M (^3 H) LTB4 in the presence or absence of test compounds. The incubation was carried out at 0° C. for 45 minutes and terminated by adding 5 ml of ice-cold HBSS followed by rapid filtration of incubation mixture under vacuum through GF/C glass fiber filters. The filters were further washed with 10 ml HBSS and radioactivity was determined. Specific binding was defined as the difference between total binding and nonspecific binding which was not displaced by 10^-7 M unlabeled LTB4. All data refer to specific binding.

T3 sequence (Q15722 whole entry): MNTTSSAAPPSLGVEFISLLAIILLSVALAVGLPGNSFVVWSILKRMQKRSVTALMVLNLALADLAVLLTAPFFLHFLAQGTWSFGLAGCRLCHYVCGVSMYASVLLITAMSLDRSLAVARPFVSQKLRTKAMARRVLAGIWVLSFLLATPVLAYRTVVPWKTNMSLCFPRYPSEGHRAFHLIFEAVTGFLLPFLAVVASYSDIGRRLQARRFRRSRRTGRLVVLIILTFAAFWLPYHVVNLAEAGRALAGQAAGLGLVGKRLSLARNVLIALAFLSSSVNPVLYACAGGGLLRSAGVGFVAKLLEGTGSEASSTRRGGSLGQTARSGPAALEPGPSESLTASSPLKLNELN

As usually defined, the IC50 is the concentration needed to halve the response being measured. Read a high IC50 as lower potency. One may read the Kb as the affinity of an antagonist, worked out from how it opposes an agonist. A lower Kb goes with a more potent antagonist. Take `CCCc1c(OCCCSCC2CSC(C)(CCCC(=O)O)S2)ccc(C(C)=O)c1O` (stereo not drawn) [Example 61, 4-[[[3-(4-Acetyl-3-hydroxy-2-propylphenoxy)propyl]thio]methyl]-2-methyl-1,3-dithiolane-2-butanoic acid]: the IC50 in experiment [1] is 5020 nM. For the same compound, the “In Vivo Bronchoconstriction Assay (% Inhibition at 5 mpk. IV)” value in experiment [2] stood at 95.6%. In experiment [3], this compound showed a Kb of 9.55 nM.
As for `CCCc1c(OCCCSCC2COC(C)(CCC(=O)O)S2)ccc(C(C)=O)c1O` (stereo not drawn) [Example 38, 4-[[[3-(4-Acetyl-3-hydroxy-2-propylphenoxy)propyl]thio]methyl]-2-methyl-1,3-oxathiolane-2-propanoic acid], the IC50 in experiment [1] amounted to 9370 nM. The “In Vivo Bronchoconstriction Assay (% Inhibition at 5 mpk. IV)” value in experiment [2] was determined as 87.2%. This compound also had a Kb in experiment [3] of 14.5 nM.
For `CCCc1c(OCCCSCC2COC(CCC(=O)O)(CCC(=O)O)S2)ccc(C(C)=O)c1O` (stereo not drawn) [Example 3, 4-[[[3-(4-Acetyl-3-hydroxy-2-propylphenoxy)propyl]thio]methyl]-1,3-oxathiolane-2,2-dipropanoic acid], in that order: 3560 nM, 96.9% and 21.4 nM.
`CCCc1c(OCCCSCC2CSC(C)(CCCC(=O)O)S2)ccc(C(C)=O)c1OC` (stereo not drawn) [Example 81, 4-[[[3-(4-Acetyl-3-methoxy-2-propylphenoxy)propyl]thio]methyl]-2-methyl-1,3-dithiolane-2-butanoic acid] showed an IC50 on LTB4 receptor of 60 nM.
In experiment [1], `CCCc1c(OCCCSCC2COC(CCC(=O)O)(c3ccccc3)S2)ccc(C(C)=O)c1O` (stereo not drawn) [Example 70, 4-[[[3-(4-Acetyl-3-hydroxy-2-propylphenoxyl]propyl]thio]methyl]-2-phenyl-1,3-oxathiolane-2-propanoic acid] had an IC50 of 6240 nM. The “In Vivo Bronchoconstriction Assay (% Inhibition at 5 mpk. IV)” value in experiment [2] came out at 59.2%. The same compound had a Kb in experiment [3] of 26.9 nM.
Compound `CCCc1c(OCCCSCC2COC(C)(CCCC(=O)O)S2)ccc(C(C)=O)c1O` (stereo not drawn) [Example 84] gave an IC50 in experiment [1] of 7100 nM. In experiment [2], the “In Vivo Bronchoconstriction Assay (% Inhibition at 5 mpk. IV)” value turned out to be 85.1%.
In turn, `CCCc1c(OCCCSCC2CSC(CCC(=O)O)(CCC(=O)O)S2)ccc(C(C)=O)c1O` (stereo not drawn) [Example 35, 4-[[[3-(4-Acetyl-3-hydroxy-2-propylphenoxy)propyl]thio]methyl]-1,3-dithiolane-2,2-dipropanoic acid] yielded an IC50 in experiment [1] of 591 nM. Moreover, the “In Vivo Bronchoconstriction Assay (% Inhibition at 5 mpk. IV)” value in experiment [2] is on record as 93%. In experiment [3], this compound showed a Kb of 8.91 nM.
With `CCCc1c(OCCCSCC2CSC(C)(CCC(=O)O)S2)ccc(C(C)=O)c1O` (stereo not drawn) [Example 50, 4-[[[3-(4-Acetyl-3-hydroxy-2-propylphenoxy)propyl]thio]methyl]-2-methyl-1,3-dithiolane-2-propanoic acid], the IC50 in experiment [1] was determined as 9470 nM. In addition, the “In Vivo Bronchoconstriction Assay (% Inhibition at 5 mpk. IV)” value in experiment [2] is on record as 91.2%. In addition, the Kb in experiment [3] is 14.5 nM.
